Results as given in patent US11090319B2, “Therapeutic uses of pharmaceutical compositions comprising cyclic boronic acid ester derivatives” (Melinta Subsidiary Corp., priority 2010, dated 2021).

How the values were obtained:
Test in all cases: Ceftazidime MIC with fixed concentration of BLI
Type in all cases: cell-based
[1] = tested on: pa1063 Pseudomonas aeruginosa GES-1; details: derivative at 10 μg/mL; pa1063 GES-1
Experimental: (§1) Next, ceftazidime potentiation activity of several cyclic boronic acid ester derivatives was tested using a larger panel of strains expressing β-lactamase hydrolyzing enzymes. Ceftazidime MICs were determined alone and in the presence of fixed concentrations of various cyclic boronic acid ester derivatives.

[2] = tested on: ECL1002 Enterobacter cloacae Hyper AmpC expression; details: derivative at 10 μg/mL
Experimental: as §1

[3] = tested on: EC1007 Escherichia coli KPC-3; details: derivative at 10 μg/mL; EC1007 KPC-3
Experimental: as §1

[4] = tested on: ec310 Escherichia coli ACT-1; details: derivative at 10 μg/mL; ec310 ACT-1
Experimental: as §1

[5] = tested on: KP1007 Klebsiella pneumoniae OXA-10; details: derivative at 10 μg/mL; KP1007 OXA-10
Experimental: as §1

[6] = tested on: EC1004 Escherichia coli CMY-2; details: derivative at 10 μg/mL; EC1004 CMY-2
Experimental: as §1

[7] = tested on: KP1009 Klebsiella pneumoniae CTX-M-15; details: derivative at 10 μg/mL; KP1009 CTX-M-15
Experimental: as §1

[8] = tested on: PAM2035 Pseudomonas aeruginosa ampC mexA:tet; details: derivative at 10 μg/mL
Experimental: as §1

[9] = tested on: EC1012 Escherichia coli TEM-12; details: derivative at 10 μg/mL; EC1012 TEM-12
Experimental: as §1

[10] = tested on: PAM2005 Pseudomonas aeruginosa ampC; details: derivative at 10 μg/mL
Experimental: as §1

[11] = tested on: AB1054 Acinetobacter baumannii OXA-23; details: derivative at 10 μg/mL; AB1054 OXA-23
Experimental: as §1

[12] = tested on: ec301 Escherichia coli TEM-6; details: derivative at 10 μg/mL; ec301 TEM-6
Experimental: as §1

[13] = tested on: ec300 Escherichia coli TEM-3; details: derivative at 10 μg/mL; ec300 TEM-3
Experimental: as §1

[14] = tested on: ec307 Escherichia coli SHV-4; details: derivative at 10 μg/mL; ec307 SHV-4
Experimental: as §1

[15] = tested on: CF1000 Citrobacter freundii Hyper AmpC expression; details: derivative at 10 μg/mL
Experimental: as §1

[16] = tested on: EC1010 Escherichia coli CMY-6; details: derivative at 10 μg/mL; EC1010 CMY-6
Experimental: as §1

[17] = tested on: ec306 Escherichia coli SHV-2; details: derivative at 10 μg/mL; ec306 SHV-2
Experimental: as §1

[18] = tested on: EC1009 Escherichia coli TEM-10; details: derivative at 10 μg/mL; EC1009 TEM-10
Experimental: as §1

[19] = tested on: ec302 Escherichia coli TEM-10; details: derivative at 10 μg/mL; ec302 TEM-10
Experimental: as §1

[20] = tested on: ec303 Escherichia coli TEM-12; details: derivative at 10 μg/mL; ec303 TEM-12
Experimental: as §1

[21] = tested on: KX1000 Klebsiella oxytoca OXA-2; details: derivative at 10 μg/mL; KX1000 OXA-2
Experimental: as §1

[22] = tested on: EC1006 Escherichia coli FOX-5; details: derivative at 10 μg/mL; EC1006 FOX-5
Experimental: as §1

[23] = tested on: KP1010 Klebsiella pneumoniae SHV-12; details: derivative at 10 μg/mL; KP1010 SHV-12
Experimental: as §1

[24] = tested on: EC1014 Escherichia coli DHA-1; details: derivative at 10 μg/mL; EC1014 DHA-1
Experimental: as §1

[25] = tested on: KP1012 Klebsiella pneumoniae SHV-18; details: derivative at 10 μg/mL; KP1012 SHV-18
Experimental: as §1

[26] = tested on: ec308 Escherichia coli SHV-5; details: derivative at 10 μg/mL; ec308 SHV-5
Experimental: as §1

[27] = tested on: KP1008 Klebsiella pneumoniae KPC-2; details: derivative at 10 μg/mL; KP1008 KPC-2
Experimental: as §1

[28] = tested on: EC1008 Escherichia coli CTX-M3; details: derivative at 10 μg/mL
Experimental: as §1

[29] = tested on: KP1005 Klebsiella pneumoniae CTX-M-14; details: derivative at 10 μg/mL; KP1005 CTX-M-14
Experimental: as §1

[30] = tested on: KP1004 Klebsiella pneumoniae KPC-2; details: derivative at 10 μg/mL; KP1004 KPC-2
Experimental: as §1

[31] = tested on: ec309 Escherichia coli MIR-1; details: derivative at 10 μg/mL; ec309 MIR-1
Experimental: as §1

| Structure (SMILES) | Ceftazidime MIC with cyclic boronic acid ester derivative [1] | Ceftazidime MIC with cyclic boronic acid ester derivative [2] | Ceftazidime MIC with cyclic boronic acid ester derivative [3] | Ceftazidime MIC with cyclic boronic acid ester derivative [4] | Ceftazidime MIC with cyclic boronic acid ester derivative [5] | Ceftazidime MIC with cyclic boronic acid ester derivative [6] | Ceftazidime MIC with cyclic boronic acid ester derivative [7] | Ceftazidime MIC with cyclic boronic acid ester derivative [8] | Ceftazidime MIC with cyclic boronic acid ester derivative [9] | Ceftazidime MIC with cyclic boronic acid ester derivative [10] | Ceftazidime MIC with cyclic boronic acid ester derivative [11] | Ceftazidime MIC with cyclic boronic acid ester derivative [12] | Ceftazidime MIC with cyclic boronic acid ester derivative [13] | Ceftazidime MIC with cyclic boronic acid ester derivative [14] | Ceftazidime MIC with cyclic boronic acid ester derivative [15] | Ceftazidime MIC with cyclic boronic acid ester derivative [16] | Ceftazidime MIC with cyclic boronic acid ester derivative [17] | Ceftazidime MIC with cyclic boronic acid ester derivative [18] | Ceftazidime MIC with cyclic boronic acid ester derivative [19] | Ceftazidime MIC with cyclic boronic acid ester derivative [20] | further results |
| --- | --- | --- | --- | --- | --- | --- | --- | --- | --- | --- | --- | --- | --- | --- | --- | --- | --- | --- | --- | --- | --- |
| O=C(O)C[C@@H]1CC[C@H](NC(=O)Cc2ccccc2)B(O)O1 [Compound 6, 2-((3R,6S)-2-hydroxy-3-(2-phenylacetamido)-1,2-oxaborinan-6-yl)acetic acid] | Z (MIC of greater than 8 μg/mL) | Y (MIC of greater than 1 μg/mL to 8 μg/mL) | X (MIC of 1 μg/mL or less) | X (MIC of 1 μg/mL or less) | Y (MIC of greater than 1 μg/mL to 8 μg/mL) | Y (MIC of greater than 1 μg/mL to 8 μg/mL) | Z (MIC of greater than 8 μg/mL) | Y (MIC of greater than 1 μg/mL to 8 μg/mL) | Y (MIC of greater than 1 μg/mL to 8 μg/mL) | Z (MIC of greater than 8 μg/mL) | Z (MIC of greater than 8 μg/mL) | Z (MIC of greater than 8 μg/mL) | Z (MIC of greater than 8 μg/mL) | Z (MIC of greater than 8 μg/mL) | Y (MIC of greater than 1 μg/mL to 8 μg/mL) | Y (MIC of greater than 1 μg/mL to 8 μg/mL) | Z (MIC of greater than 8 μg/mL) | Z (MIC of greater than 8 μg/mL) | Z (MIC of greater than 8 μg/mL) | Y (MIC of greater than 1 μg/mL to 8 μg/mL) | Ceftazidime MIC with cyclic boronic acid ester derivative [21]: Y (MIC of greater than 1 μg/mL to 8 μg/mL); Ceftazidime MIC with cyclic boronic acid ester derivative [22]: Y (MIC of greater than 1 μg/mL to 8 μg/mL); Ceftazidime MIC with cyclic boronic acid ester derivative [23]: Y (MIC of greater than 1 μg/mL to 8 μg/mL); Ceftazidime MIC with cyclic boronic acid ester derivative [24]: X (MIC of 1 μg/mL or less); Ceftazidime MIC with cyclic boronic acid ester derivative [25]: Y (MIC of greater than 1 μg/mL to 8 μg/mL); Ceftazidime MIC with cyclic boronic acid ester derivative [26]: Z (MIC of greater than 8 μg/mL); Ceftazidime MIC with cyclic boronic acid ester derivative [27]: X (MIC of 1 μg/mL or less); Ceftazidime MIC with cyclic boronic acid ester derivative [28]: Y (MIC of greater than 1 μg/mL to 8 μg/mL); Ceftazidime MIC with cyclic boronic acid ester derivative [29]: Z (MIC of greater than 8 μg/mL); Ceftazidime MIC with cyclic boronic acid ester derivative [30]: Y (MIC of greater than 1 μg/mL to 8 μg/mL); Ceftazidime MIC with cyclic boronic acid ester derivative [31]: X (MIC of 1 μg/mL or less) |
| Cl.N[C@H]1CCC(CC(=O)O)OB1O (stereo partly drawn) [Compound 7, 2-((3R)-3-amino-2-hydroxy-1,2-oxaborinan-6-yl)acetic acid hydrochloride] | Z (MIC of greater than 8 μg/mL) | Z (MIC of greater than 8 μg/mL) | Z (MIC of greater than 8 μg/mL) | Z (MIC of greater than 8 μg/mL) | Z (MIC of greater than 8 μg/mL) | Z (MIC of greater than 8 μg/mL) | Z (MIC of greater than 8 μg/mL) | Z (MIC of greater than 8 μg/mL) | Z (MIC of greater than 8 μg/mL) | Z (MIC of greater than 8 μg/mL) | Z (MIC of greater than 8 μg/mL) | Z (MIC of greater than 8 μg/mL) | Z (MIC of greater than 8 μg/mL) | Z (MIC of greater than 8 μg/mL) | Z (MIC of greater than 8 μg/mL) | Z (MIC of greater than 8 μg/mL) | Z (MIC of greater than 8 μg/mL) | Z (MIC of greater than 8 μg/mL) | Z (MIC of greater than 8 μg/mL) | Z (MIC of greater than 8 μg/mL) | Ceftazidime MIC with cyclic boronic acid ester derivative [21]: Y (MIC of greater than 1 μg/mL to 8 μg/mL); Ceftazidime MIC with cyclic boronic acid ester derivative [22]: Z (MIC of greater than 8 μg/mL); Ceftazidime MIC with cyclic boronic acid ester derivative [23]: Z (MIC of greater than 8 μg/mL); Ceftazidime MIC with cyclic boronic acid ester derivative [24]: Z (MIC of greater than 8 μg/mL); Ceftazidime MIC with cyclic boronic acid ester derivative [25]: Z (MIC of greater than 8 μg/mL); Ceftazidime MIC with cyclic boronic acid ester derivative [26]: Z (MIC of greater than 8 μg/mL); Ceftazidime MIC with cyclic boronic acid ester derivative [27]: Z (MIC of greater than 8 μg/mL); Ceftazidime MIC with cyclic boronic acid ester derivative [28]: Z (MIC of greater than 8 μg/mL); Ceftazidime MIC with cyclic boronic acid ester derivative [29]: Z (MIC of greater than 8 μg/mL); Ceftazidime MIC with cyclic boronic acid ester derivative [30]: Z (MIC of greater than 8 μg/mL); Ceftazidime MIC with cyclic boronic acid ester derivative [31]: Z (MIC of greater than 8 μg/mL) |
